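Test compounds were applied to cells in 96-well plates for 48 hours at 5 doses. The concentration for 50% growth inhibition is given as GI50.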 The source made the active and inactive calls. Rule as the data show it: active = GI50 up to about 1.1 µM and inactive = higher.
How the values were obtained:
Assay in all cases: NCI-60 cell line screen, 48 h
A549 = tested on: A549
ACHN = tested on: ACHN
CCRF-CEM = tested on: CCRF-CEM
KM12 = tested on: KM12
MDA-MB-231 = tested on: MDA-MB-231
MDA-MB-435 = tested on: MDA-MB-435
NCI-H460 = tested on: NCI-H460
NCI/ADR-RES = tested on: NCI/ADR-RES
OVCAR-8 = tested on: OVCAR-8
RPMI-8226 = tested on: RPMI-8226
SF-268 = tested on: SF-268
SF-539 = tested on: SF-539
SK-MEL-28 = tested on: SK-MEL-28
SN12C = tested on: SN12C
SNB-19 = tested on: SNB-19
SW-620 = tested on: SW-620
T47D = tested on: T47D
TK-10 = tested on: TK-10
U-251 = tested on: U-251
UO-31 = tested on: UO-31

| Compound | GI50 (A549) | GI50 (ACHN) | GI50 (CCRF-CEM) | GI50 (KM12) | GI50 (MDA-MB-231) | GI50 (MDA-MB-435) | GI50 (NCI-H460) | GI50 (NCI/ADR-RES) | GI50 (OVCAR-8) | GI50 (RPMI-8226) | GI50 (SF-268) | GI50 (SF-539) | GI50 (SK-MEL-28) | GI50 (SN12C) | GI50 (SNB-19) | GI50 (SW-620) | GI50 (T47D) | GI50 (TK-10) | GI50 (U-251) | GI50 (UO-31) |
| --- | --- | --- | --- | --- | --- | --- | --- | --- | --- | --- | --- | --- | --- | --- | --- | --- | --- | --- | --- | --- |
| CC1=C(C(=O)Nc2ccc(Cl)c(C(=O)OC(C)C)c2)SCCO1 | 50.1 µM (inactive) | > 100 µM (inactive) | 48.6 µM (inactive) | 80.9 µM (inactive) | > 100 µM (inactive) | > 100 µM (inactive) | 66.2 µM (inactive) | 66.2 µM (inactive) | 81.3 µM (inactive) | 23.3 µM (inactive) | 30.6 µM (inactive) | > 89.3 µM (inactive) | 74.6 µM (inactive) | > 100 µM (inactive) | 70.5 µM (inactive) | 74.8 µM (inactive) | 24.2 µM (inactive) | > 100 µM (inactive) | 55.7 µM (inactive) | 36.9 µM (inactive) |
| CCOC(=O)C1=CC(C)(C(=O)OCC)Nc2c(nc(OC)n(C)c2=O)N1 (stereo not given) | > 10 µM (inactive) | > 10 µM (inactive) | > 10 µM (inactive) | > 10 µM (inactive) | > 10 µM (inactive) | > 10 µM (inactive) | > 10 µM (inactive) | > 10 µM (inactive) | > 10 µM (inactive) | > 10 µM (inactive) | > 10 µM (inactive) | > 10 µM (inactive) | > 10 µM (inactive) | > 10 µM (inactive) | > 10 µM (inactive) | > 10 µM (inactive) | > 10 µM (inactive) | > 10 µM (inactive) | > 10 µM (inactive) | > 10 µM (inactive) |
| Brc1ccccc1/C=C\C1(c2ccccc2)OCCO1 | 16 µM (inactive) | 8.51 µM (inactive) | 3.03 µM (inactive) | 2.34 µM (inactive) | 9.27 µM (inactive) | 11.7 µM (inactive) | 14.1 µM (inactive) | 10.9 µM (inactive) | 9.23 µM (inactive) | 1.01 µM (active) | 4.98 µM (inactive) | 10.4 µM (inactive) | 18.8 µM (inactive) | 14.1 µM (inactive) | 15 µM (inactive) | 5.47 µM (inactive) | 15.2 µM (inactive) | 16.6 µM (inactive) | 6.24 µM (inactive) | 7.83 µM (inactive) |
| CC1=CC(C2/C(=N/O)C=C(C)CC2(C)C)C(O)C(C)(C)C1 (stereo not given) | 15.5 µM (inactive) | 18.9 µM (inactive) | 22.8 µM (inactive) | 15.9 µM (inactive) | 17.3 µM (inactive) | 16.4 µM (inactive) | 21.3 µM (inactive) | 16.3 µM (inactive) | 17.5 µM (inactive) | 14 µM (inactive) | 18 µM (inactive) | 24 µM (inactive) | 15.7 µM (inactive) | 18.4 µM (inactive) | 15.8 µM (inactive) | 15.7 µM (inactive) | 12.8 µM (inactive) | 19.1 µM (inactive) | 15.7 µM (inactive) | 15.6 µM (inactive) |
| CCN(CC)CCN1C(=O)C(=O)N(c2cccc3ccccc23)C1=O | > 10 µM (inactive) | > 10 µM (inactive) | > 10 µM (inactive) | > 10 µM (inactive) | > 10 µM (inactive) | > 10 µM (inactive) | > 10 µM (inactive) | > 10 µM (inactive) | > 10 µM (inactive) | > 10 µM (inactive) | > 10 µM (inactive) | > 10 µM (inactive) | > 10 µM (inactive) | > 10 µM (inactive) | > 10 µM (inactive) | > 10 µM (inactive) | > 10 µM (inactive) | > 10 µM (inactive) | > 10 µM (inactive) | > 10 µM (inactive) |
